Active and inactive are the calls of the source.

The AC50 is the concentration giving half of the maximal activity seen.

The target in assay [1] is Cysteine protease ATG4B (Homo sapiens, UniProt Q9Y4P1). Type of assay: functional.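 Also: Fluorescence-based dose-response confirmation assay measuring inhibition of ATG4B activity.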
In assay [2] the target is T1, Polyadenylate-binding protein 1 (Homo sapiens, UniProt P11940). Put plainly: MLLE binding blockers, Cy5 peptide tracer – biochemical, fluorescence polarization, Cy5-PAM2 peptide, secondary, miRNA deadenylation inhibitor project, dose response (AID 602260). Type of assay: functional. Particulars: read-out: IC50_Mean. (In fluorescence polarisation assays a small probe gives low polarisation when free and higher when bound to something large.)
T1 sequence (P11940 whole entry): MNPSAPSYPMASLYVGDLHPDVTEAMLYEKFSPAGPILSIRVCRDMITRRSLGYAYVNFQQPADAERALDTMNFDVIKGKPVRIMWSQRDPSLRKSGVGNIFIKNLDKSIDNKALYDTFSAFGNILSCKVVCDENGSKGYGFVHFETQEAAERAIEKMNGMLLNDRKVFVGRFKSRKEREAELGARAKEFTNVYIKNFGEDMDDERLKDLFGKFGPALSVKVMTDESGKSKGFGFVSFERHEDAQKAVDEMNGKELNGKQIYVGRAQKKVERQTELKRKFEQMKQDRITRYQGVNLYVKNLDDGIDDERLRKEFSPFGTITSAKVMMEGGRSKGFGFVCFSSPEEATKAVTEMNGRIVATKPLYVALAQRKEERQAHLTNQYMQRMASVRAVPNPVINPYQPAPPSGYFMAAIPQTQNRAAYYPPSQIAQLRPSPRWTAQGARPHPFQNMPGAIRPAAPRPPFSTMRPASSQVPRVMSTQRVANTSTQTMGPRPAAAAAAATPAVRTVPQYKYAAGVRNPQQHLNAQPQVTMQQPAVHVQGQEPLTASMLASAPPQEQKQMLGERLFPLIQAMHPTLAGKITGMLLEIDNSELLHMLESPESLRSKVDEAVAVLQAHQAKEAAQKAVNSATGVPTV

The target in assay [3] is Phospholipase A2 (Homo sapiens, UniProt P04054). Format: functional.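 Also: confirmatory dose-response counterscreen on phospholipase A2, testing hits that came from an ultra-high-throughput screen for ATG4B inhibitors.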
Sequence of Phospholipase A2 (P04054 whole entry, the tested form may be a part): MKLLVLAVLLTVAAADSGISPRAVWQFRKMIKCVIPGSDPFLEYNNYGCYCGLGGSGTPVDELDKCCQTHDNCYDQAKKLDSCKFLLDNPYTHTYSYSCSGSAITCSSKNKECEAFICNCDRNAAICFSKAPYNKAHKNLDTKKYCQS
The target of assay [4] is T1, Polyadenylate-binding protein 1. In words: MLLE domain peptide-binding blockers, IC50 – biochemical, fluorescence polarization, FITC-PAM2 peptide, dose response (AID 602259). Particulars: read-out: IC50_Mean. Format: functional.
For assay [5], the target named is Dual specificity tyrosine-phosphorylation-regulated kinase 1A (Rattus norvegicus, UniProt Q63470). Type of assay: biochemical, Homo sapiens.
For assay [6], the target named is T2, Long-chain-fatty-acid--AMP ligase FadD28 (Mycobacterium tuberculosis, UniProt P9WQ59).
T2 sequence (P9WQ59 whole entry): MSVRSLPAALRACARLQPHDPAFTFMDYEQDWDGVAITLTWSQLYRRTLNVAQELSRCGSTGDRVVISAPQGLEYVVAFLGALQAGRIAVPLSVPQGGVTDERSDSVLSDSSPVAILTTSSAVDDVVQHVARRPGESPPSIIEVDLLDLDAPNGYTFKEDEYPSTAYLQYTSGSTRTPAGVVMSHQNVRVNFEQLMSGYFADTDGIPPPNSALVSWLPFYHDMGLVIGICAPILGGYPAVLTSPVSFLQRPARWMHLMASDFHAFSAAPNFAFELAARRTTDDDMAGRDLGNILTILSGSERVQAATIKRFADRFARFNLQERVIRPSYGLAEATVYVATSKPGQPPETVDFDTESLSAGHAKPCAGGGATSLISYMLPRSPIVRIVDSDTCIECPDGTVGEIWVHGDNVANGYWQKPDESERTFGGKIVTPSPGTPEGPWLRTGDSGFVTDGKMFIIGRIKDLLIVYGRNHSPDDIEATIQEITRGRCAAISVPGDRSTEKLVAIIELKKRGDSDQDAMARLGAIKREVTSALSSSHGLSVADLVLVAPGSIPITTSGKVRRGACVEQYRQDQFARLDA
In words: Fluorescence polarization aasay to screen for inhibitors that compete for the binding of FadD28 to a bisubstrate Measured in Biochemical System Using Plate Reader - 2147-01_Inhibitor_Dose_CherryPick_Activity. Format: functional, Mycobacterium tuberculosis H37Rv.

Assay [7] concerns the target Genome polyprotein (dengue virus type 2, UniProt P29990). Put plainly: flavivirus cap methylation enzyme inhibition – biochemical, confirmation dose response, primary screen (AID 588689). Format: functional.
In assay [8] the target is Glucose-6-phosphate 1-dehydrogenase (Homo sapiens, UniProt P11413). In words: inhibition of Homo sapiens G6PD, dose series – biochemical, fluorescence, selectivity assay for P. falciparum G6PD inhibitor project, dose response (AID 504792). Type of assay: functional.
Sequence of Glucose-6-phosphate 1-dehydrogenase (P11413 whole entry): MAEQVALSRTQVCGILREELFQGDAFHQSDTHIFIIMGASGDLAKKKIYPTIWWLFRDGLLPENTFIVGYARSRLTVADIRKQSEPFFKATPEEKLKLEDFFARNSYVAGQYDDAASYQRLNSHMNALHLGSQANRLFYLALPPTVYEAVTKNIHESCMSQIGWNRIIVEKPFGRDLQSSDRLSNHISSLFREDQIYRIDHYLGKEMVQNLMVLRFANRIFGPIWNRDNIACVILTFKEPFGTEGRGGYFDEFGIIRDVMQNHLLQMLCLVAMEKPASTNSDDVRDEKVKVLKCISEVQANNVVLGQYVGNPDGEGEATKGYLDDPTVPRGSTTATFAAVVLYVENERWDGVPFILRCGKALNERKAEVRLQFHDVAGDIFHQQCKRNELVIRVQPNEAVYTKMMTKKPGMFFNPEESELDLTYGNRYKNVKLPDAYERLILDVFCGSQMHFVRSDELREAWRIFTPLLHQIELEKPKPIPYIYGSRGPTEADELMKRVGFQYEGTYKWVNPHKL
Assay [9] concerns the target T3, Hexokinase HKDC1 (Homo sapiens, UniProt Q2TB90).
T3 sequence (Q2TB90 whole entry): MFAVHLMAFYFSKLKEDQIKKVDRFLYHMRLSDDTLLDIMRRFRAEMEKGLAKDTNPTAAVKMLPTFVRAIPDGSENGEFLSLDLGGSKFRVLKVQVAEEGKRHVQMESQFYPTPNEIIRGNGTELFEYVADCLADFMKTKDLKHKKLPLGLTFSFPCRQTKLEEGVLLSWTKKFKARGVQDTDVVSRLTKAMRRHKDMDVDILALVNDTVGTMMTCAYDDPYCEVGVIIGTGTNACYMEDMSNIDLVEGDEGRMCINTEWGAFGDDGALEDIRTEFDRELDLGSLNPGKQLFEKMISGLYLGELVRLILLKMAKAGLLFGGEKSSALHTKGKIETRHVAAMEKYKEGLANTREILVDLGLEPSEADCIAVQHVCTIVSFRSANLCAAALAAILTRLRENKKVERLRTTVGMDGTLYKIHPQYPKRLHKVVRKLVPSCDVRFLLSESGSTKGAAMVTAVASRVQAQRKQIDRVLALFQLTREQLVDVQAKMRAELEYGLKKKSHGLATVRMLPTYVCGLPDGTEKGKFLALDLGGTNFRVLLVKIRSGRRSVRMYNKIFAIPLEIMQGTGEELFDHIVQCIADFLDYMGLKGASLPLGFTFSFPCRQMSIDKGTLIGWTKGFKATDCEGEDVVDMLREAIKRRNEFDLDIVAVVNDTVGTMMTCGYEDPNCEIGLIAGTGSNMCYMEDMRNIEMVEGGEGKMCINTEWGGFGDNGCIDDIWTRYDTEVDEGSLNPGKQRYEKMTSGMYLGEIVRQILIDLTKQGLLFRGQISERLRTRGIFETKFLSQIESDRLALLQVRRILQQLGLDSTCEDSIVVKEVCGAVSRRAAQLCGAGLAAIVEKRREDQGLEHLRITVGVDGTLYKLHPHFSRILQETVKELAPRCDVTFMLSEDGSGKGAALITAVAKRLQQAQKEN
In words: inhibition of HKDC1 glucose phosphorylation – biochemical, W721R variant, dose response (AID 504729). Format: functional.

The target in assay [10] is Voltage-gated inwardly rectifying potassium channel KCNH2 (Homo sapiens, UniProt Q12809). Particulars: Potency.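 Also: confirmatory quantitative high-throughput screen measuring inhibition of hERG channel activity.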
Sequence of Voltage-gated inwardly rectifying potassium channel KCNH2 (Q12809 whole entry): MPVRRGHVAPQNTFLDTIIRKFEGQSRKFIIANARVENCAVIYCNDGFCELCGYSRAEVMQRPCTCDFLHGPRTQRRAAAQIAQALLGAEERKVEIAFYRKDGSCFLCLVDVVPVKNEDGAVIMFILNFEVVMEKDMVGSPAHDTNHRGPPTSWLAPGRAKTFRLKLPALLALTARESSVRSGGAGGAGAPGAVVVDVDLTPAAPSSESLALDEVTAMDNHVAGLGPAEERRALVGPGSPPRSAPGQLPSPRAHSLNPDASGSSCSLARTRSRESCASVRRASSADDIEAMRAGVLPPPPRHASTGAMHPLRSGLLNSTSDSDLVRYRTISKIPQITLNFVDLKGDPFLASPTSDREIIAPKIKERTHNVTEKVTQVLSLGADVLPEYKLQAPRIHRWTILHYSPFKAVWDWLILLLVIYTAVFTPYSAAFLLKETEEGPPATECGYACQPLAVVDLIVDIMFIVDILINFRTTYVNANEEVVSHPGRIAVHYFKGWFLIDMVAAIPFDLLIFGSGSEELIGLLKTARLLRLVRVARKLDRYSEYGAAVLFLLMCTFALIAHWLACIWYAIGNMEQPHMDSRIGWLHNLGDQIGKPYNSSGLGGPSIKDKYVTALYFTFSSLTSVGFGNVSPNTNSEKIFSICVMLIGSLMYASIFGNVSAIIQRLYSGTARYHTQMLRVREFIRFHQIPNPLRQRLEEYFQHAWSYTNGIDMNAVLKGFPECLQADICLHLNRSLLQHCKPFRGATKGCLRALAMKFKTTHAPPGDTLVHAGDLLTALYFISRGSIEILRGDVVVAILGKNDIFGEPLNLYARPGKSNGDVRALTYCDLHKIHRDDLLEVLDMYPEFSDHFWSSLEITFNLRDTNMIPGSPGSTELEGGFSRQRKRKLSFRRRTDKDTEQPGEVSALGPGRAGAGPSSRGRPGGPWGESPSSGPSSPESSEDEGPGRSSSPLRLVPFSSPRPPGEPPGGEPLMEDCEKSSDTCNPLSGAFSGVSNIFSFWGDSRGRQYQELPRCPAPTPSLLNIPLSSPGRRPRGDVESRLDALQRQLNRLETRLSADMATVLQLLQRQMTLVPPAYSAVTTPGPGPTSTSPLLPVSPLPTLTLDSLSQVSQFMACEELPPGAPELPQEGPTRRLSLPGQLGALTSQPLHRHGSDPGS

Sequence of Cysteine protease ATG4B (Q9Y4P1 whole entry): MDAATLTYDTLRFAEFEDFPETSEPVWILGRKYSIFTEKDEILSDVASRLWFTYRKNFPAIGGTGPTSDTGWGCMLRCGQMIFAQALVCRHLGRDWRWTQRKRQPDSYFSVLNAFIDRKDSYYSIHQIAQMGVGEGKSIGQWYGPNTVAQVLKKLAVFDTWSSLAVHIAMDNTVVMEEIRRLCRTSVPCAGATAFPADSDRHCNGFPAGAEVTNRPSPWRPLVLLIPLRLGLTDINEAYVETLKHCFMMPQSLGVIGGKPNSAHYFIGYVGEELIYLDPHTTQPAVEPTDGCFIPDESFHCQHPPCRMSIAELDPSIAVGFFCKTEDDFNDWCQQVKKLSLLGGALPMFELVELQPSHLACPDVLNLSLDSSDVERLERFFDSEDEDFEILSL
Sequence of Genome polyprotein (P29990 2492-3391 limits assumed): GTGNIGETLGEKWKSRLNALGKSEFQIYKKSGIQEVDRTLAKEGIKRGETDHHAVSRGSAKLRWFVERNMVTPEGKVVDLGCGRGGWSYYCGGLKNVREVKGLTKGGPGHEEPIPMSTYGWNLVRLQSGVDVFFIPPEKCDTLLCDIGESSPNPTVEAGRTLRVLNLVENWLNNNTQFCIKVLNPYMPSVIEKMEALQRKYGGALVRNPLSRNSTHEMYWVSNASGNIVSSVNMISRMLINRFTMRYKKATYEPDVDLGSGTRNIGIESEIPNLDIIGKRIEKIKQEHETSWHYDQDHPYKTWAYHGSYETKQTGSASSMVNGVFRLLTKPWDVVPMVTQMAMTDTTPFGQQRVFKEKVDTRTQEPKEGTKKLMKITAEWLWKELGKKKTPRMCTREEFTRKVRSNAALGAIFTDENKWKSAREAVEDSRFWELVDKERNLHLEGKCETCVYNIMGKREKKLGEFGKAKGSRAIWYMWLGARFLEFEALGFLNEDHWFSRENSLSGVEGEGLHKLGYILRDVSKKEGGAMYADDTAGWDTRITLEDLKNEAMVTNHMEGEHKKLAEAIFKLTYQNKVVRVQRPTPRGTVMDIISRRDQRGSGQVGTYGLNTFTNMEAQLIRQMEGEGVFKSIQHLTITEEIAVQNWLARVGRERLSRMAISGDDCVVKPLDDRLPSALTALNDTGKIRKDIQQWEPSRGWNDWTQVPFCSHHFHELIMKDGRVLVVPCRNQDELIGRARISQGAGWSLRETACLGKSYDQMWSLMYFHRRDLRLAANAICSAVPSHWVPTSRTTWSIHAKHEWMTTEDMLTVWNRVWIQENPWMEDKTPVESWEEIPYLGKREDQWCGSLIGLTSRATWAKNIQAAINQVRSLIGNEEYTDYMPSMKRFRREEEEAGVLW

Consider `Cc1ccc(-n2c(SCC(=O)N/N=C/c3c(C)nn(-c4ccccc4)c3C)nc3ccccc3c2=O)cc1`, for which the IC50 in assay [1] was 14.2 µM (active); in assay [2], > 66 µM (inactive); in assay [3] it was 1.86 µM (active); in assay [4], > 66 µM (inactive).

Turning to `COc1ccc2c3c([nH]c2c1)C(C)N(CCC(=O)NN)CC3` (configuration not stated), in assay [5], the half-maximal activity concentration (AC50) was 1.45 µM (active).

On to `Nc1ccc(S(=O)(=O)c2cc(O)c3ccccc3c2O)cc1`, for which the AC50 in [6] was > 100 µM (inactive). In addition, the IC50 in assay [7] was 5.47 µM (active); in assay [8], > 80 µM (inactive); in assay [9], 18.1 µM (active).

In the case of `O=c1c2ccccc2nc(/C=C/c2ccc(O)cc2)n1CCc1ccccc1`, the figures for the IC50 in assay [1] and in [3] were 17.2 µM (active) and 12.2 µM (active), respectively.

For the molecule `CCc1ccc(C(c2ccc(CC)cc2)C(Cl)Cl)cc1`, in assay [10], the AC50 is 22.4 µM (inconclusive).

These data come from ChEMBL document CHEMBL1201862, “PubChem BioAssay data set” (2004).
